How the values were obtained:
[1] = system: AT1R/FFluc fusion; experiment: AT1R/FFluc fusion endocytosis assay (reduction of luciferase signal); format: cell-based; conditions: varying concentrations, 15 minutes stimulation, FIG. 8
Procedure: For FFluc-V2R and FFluc-AT1R, plasmid DNA was transfected at 5 ng/well and 0.16 ng/well respectively. For transfection into HeLa cells, plasmid DNA was diluted 1:10 into carrier DNA yielding 5 ng/well plasmid DNA. […] 50 μL per well of luciferase substrate, D-luciferin, was then added to a final concentration of 0.2 mM D-luciferin, 2 mM MgCl2, and 2 mM ATP, and the cells incubated for 30 minutes at 37° C. For AT1R and V2R, 0.02 mM D-luciferin was used. For the luc2-B2AR experiment, 0.01 mM D-luciferin was used. For the FFLuc experiment using the D-luciferin derivative, PBI-3102, 0.02 mM substrate was used. Immediately prior to stimulation, luminescence was measured on a GLOMAX Multi Plus plate reader set to 0.5 s of integration time. Cells were then stimulated with the agonist indicated below ( 1/10 volume addition), and luminescence measured every two minutes in real-time. […] As controls, cells were treated with vehicle (Opti-MEM containing either DMSO or water). Normalized luminescence was determined by dividing the luminescence value (RLUs) of each sample by the luminescence from the same sample prior to stimulation (SEE FIG. 1A-D).
Cells were transfected with plasmid DNA encoding AT1R/FFluc fusion. […] Immediately prior to stimulation, luminescence was measured. Cells were then stimulated with varying concentrations of TRV120027 for 15 minutes, and luminescence detected. […]

[2] = target: beta2-adrenergic receptor (B2AR) fused to firefly luciferase (luc2) (UniProt P07550+P08659, E27Q/G16R/N119G/N50D); conditions: HEK293 cells, serially diluted agonist 30 minutes, trypsin/EDTA, D-luciferin without Mg/ATP, FIG. 2F
Chain of beta2-adrenergic receptor (B2AR) fused to firefly luciferase (luc2) (P08659+P07550 fused P08659:N50D/P08659:N119G/P07550:G16R/P07550:E27Q): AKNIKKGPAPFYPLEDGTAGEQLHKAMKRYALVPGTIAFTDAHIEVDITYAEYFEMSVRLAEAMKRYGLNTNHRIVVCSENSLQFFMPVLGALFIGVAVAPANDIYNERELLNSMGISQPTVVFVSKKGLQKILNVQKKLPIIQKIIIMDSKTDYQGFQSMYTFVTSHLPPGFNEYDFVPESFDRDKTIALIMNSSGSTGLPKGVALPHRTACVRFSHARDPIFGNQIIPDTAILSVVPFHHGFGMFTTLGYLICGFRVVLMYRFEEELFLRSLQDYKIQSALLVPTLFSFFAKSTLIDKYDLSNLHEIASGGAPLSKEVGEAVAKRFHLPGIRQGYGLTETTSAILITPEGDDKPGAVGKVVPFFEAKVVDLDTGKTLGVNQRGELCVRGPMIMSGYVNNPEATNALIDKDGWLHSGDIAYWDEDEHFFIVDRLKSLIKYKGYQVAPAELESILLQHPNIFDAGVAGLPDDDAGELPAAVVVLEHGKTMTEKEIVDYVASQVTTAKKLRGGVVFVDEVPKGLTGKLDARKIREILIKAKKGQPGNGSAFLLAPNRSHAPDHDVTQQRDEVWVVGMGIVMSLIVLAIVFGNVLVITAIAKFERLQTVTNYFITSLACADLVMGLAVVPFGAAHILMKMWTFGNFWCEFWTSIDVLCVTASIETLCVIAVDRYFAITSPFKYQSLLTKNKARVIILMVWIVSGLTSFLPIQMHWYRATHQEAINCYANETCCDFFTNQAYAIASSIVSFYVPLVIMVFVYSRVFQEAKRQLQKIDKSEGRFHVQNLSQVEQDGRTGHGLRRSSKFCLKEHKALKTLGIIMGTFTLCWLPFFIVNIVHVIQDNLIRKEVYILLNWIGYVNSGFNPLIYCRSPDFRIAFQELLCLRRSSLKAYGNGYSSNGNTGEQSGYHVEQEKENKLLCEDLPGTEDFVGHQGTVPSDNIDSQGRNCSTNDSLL

| Structure (SMILES) | internalization of AT1R/FFluc fusion proteins (normalized luminescence) [1] | raw luminescence signal (endocytosis, gain of signal), negative control (B2AR) fusion proteins [2] |
| --- | --- | --- |
| CC[C@H](C)[C@H](NC(=O)[C@H](Cc1ccc(O)cc1)NC(=O)[C@@H](NC(=O)[C@H](CCCNC(=N)N)NC(=O)CNC)C(C)C)C(=O)N[C@@H](Cc1cnc[nH]1)C(=O)N1CCC[C@H]1C(=O)N[C@H](C)C(=O)O [TRV120027] | detected internalization | – |
| NC(=O)CC[C@@H]1NC(=O)[C@H](Cc2ccccc2)NC(=O)[C@H](Cc2ccc(O)cc2)NC(=O)[C@@H](N)CSSC[C@@H](C(=O)N2CCC[C@H]2C(=O)N[C@@H](CCCN=C(N)N)C(=O)NCC(N)=O)NC(=O)[C@H](CC(N)=O)NC1=O [arginine vasopressin] | – | no increase |

Source: patent US9096889B2, “Compositions and methods for monitoring transmembrane trafficking” (Promega Corporation, priority 2011, dated 2015)
